Experimental findings from US20240293551A1, “USE OF ST-TYPE LIPID COMPOUNDS IN PREPARATION OF NUCLEIC ACID DELIVERY REAGENT AND RELATED PRODUCT” (INSTITUTE OF BASIC MEDICAL SCIENCES CHINESE ACADEMY OF …, priority 2021, published 2024) are described below.

For the test, the system named is PGY-sRNA-26. The experiment in a line: In vivo delivery study of lipid-nucleic acid mixture (oral gavage, RT-qPCR of PGY-sRNA-26 in tissues). Also noted: species or system mouse. Particulars: C57BL/6 mice, gavage, 100 μg lipid: 10 nmol PGY-sRNA-26, 12 hours; for oral delivery of single-stranded sRNA nucleic acids into mouse intestinal tissue: intestine; for delivery efficacy over each tissue and blood tested (broad-spectrum delivery): all tissues and blood tested. The procedure, abridged:
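C57BL/6 male mice (~6 weeks, 20-24 g), fasted 12 h, were gavaged with 10 nmol 3′-methylated PGY-sRNA-26 mixed with 100 μg lipid (heated 90° C. 15 min), versus saline or free sRNA (n=4 each). After 12 h, blood and tissues were Trizol-extracted; sRNA quantified by stem-loop RT-qPCR relative to U6.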

For the molecule `C[C@]12CC[C@H](O)CC1=CC[C@@H]1[C@@H]2CC[C@]2(C)C(=O)CC[C@@H]12` [Lipid 561], the “oral delivery of single-stranded sRNA nucleic acids into mouse blood” value is given as “can effectively orally deliver” and the “oral delivery of single-stranded sRNA nucleic acids into mouse femur” value was “can effectively orally deliver”.
As for `C[C@]12CC[C@H]3[C@@H](CCC4=CC(=O)CC[C@@H]43)[C@@H]1CC[C@@H]2O` [Lipid 562], the “oral delivery of single-stranded sRNA nucleic acids into mouse blood” value is given as “can effectively orally deliver”, the “oral delivery of single-stranded sRNA nucleic acids into mouse brain tissue” value is reported as “can effectively orally deliver”, the “oral delivery of single-stranded sRNA nucleic acids into mouse femur” value is on record as “can effectively orally deliver” and the “oral delivery of single-stranded sRNA nucleic acids into mouse heart tissue” value is “can effectively orally deliver”. For the same molecule, the “oral delivery of single-stranded sRNA nucleic acids into mouse intestinal tissue” value is “can effectively orally deliver”, the “oral delivery of single-stranded sRNA nucleic acids into mouse liver tissue” value is “can effectively orally deliver”, the “oral delivery of single-stranded sRNA nucleic acids into mouse lung tissue” value is reported as “can effectively orally deliver” and the “oral delivery of single-stranded sRNA nucleic acids into mouse spleen tissue” value is “can effectively orally deliver”. The “oral delivery of single-stranded sRNA nucleic acids into mouse stomach tissue” value was “can effectively orally deliver”.
On to `C[C@]12CC[C@@H](O)C[C@@H]1CC[C@@H]1[C@@H]2CC[C@]2(C)C(=O)CC[C@@H]12` [Lipid 563], for which the “delivery efficacy over each tissue and blood tested (broad-spectrum delivery)” value was “exhibited the best delivery efficacy”; the “oral delivery of single-stranded sRNA nucleic acids into mouse blood” value was “can effectively orally deliver”; the “oral delivery of single-stranded sRNA nucleic acids into mouse brain tissue” value is “can effectively orally deliver”; the “oral delivery of single-stranded sRNA nucleic acids into mouse femur” value was “can effectively orally deliver”. Moreover, the “oral delivery of single-stranded sRNA nucleic acids into mouse heart tissue” value is “can effectively orally deliver”, the “oral delivery of single-stranded sRNA nucleic acids into mouse intestinal tissue” value is “can effectively orally deliver”, the “oral delivery of single-stranded sRNA nucleic acids into mouse kidney tissue” value was “can effectively orally deliver” and the “oral delivery of single-stranded sRNA nucleic acids into mouse liver tissue” value is on record as “can effectively orally deliver”. Further, the “oral delivery of single-stranded sRNA nucleic acids into mouse lung tissue” value is reported as “can effectively orally deliver”, the “oral delivery of single-stranded sRNA nucleic acids into mouse spleen tissue” value is recorded as “can effectively orally deliver” and the “oral delivery of single-stranded sRNA nucleic acids into mouse stomach tissue” value is reported as “can effectively orally deliver”.
`C[C@]12C=CC(=O)C=C1CC[C@@H]1[C@@H]2C(=O)C[C@@]2(C)[C@H]1CC[C@]2(O)C(=O)CO` [Lipid 564]: the “oral delivery of single-stranded sRNA nucleic acids into mouse blood” value is “can effectively orally deliver”, the “oral delivery of single-stranded sRNA nucleic acids into mouse brain tissue” value was “can effectively orally deliver”, the “oral delivery of single-stranded sRNA nucleic acids into mouse femur” value is recorded as “can effectively orally deliver” and the “oral delivery of single-stranded sRNA nucleic acids into mouse heart tissue” value is reported as “can effectively orally deliver”. The “oral delivery of single-stranded sRNA nucleic acids into mouse intestinal tissue” value is recorded as “can effectively orally deliver”, the “oral delivery of single-stranded sRNA nucleic acids into mouse kidney tissue” value is “can effectively orally deliver”, the “oral delivery of single-stranded sRNA nucleic acids into mouse liver tissue” value is given as “can effectively orally deliver” and the “oral delivery of single-stranded sRNA nucleic acids into mouse lung tissue” value is recorded as “can effectively orally deliver”. In addition, the “oral delivery of single-stranded sRNA nucleic acids into mouse spleen tissue” value was “can effectively orally deliver” and the “oral delivery of single-stranded sRNA nucleic acids into mouse stomach tissue” value was “can effectively orally deliver”.
Regarding `CCCCCCCCCCCCCCCCC(=O)O[C@H]1CC[C@@]2(C)C(=CC[C@H]3[C@@H]4CC[C@H]([C@H](C)CCCC(C)C)[C@@]4(C)CC[C@@H]32)C1` [Lipid 565], the “oral delivery of single-stranded sRNA nucleic acids into mouse blood” value is reported as “can effectively orally deliver”, the “oral delivery of single-stranded sRNA nucleic acids into mouse brain tissue” value is listed as “can effectively orally deliver”, the “oral delivery of single-stranded sRNA nucleic acids into mouse femur” value is given as “can effectively orally deliver” and the “oral delivery of single-stranded sRNA nucleic acids into mouse heart tissue” value is “can effectively orally deliver”. Further, the “oral delivery of single-stranded sRNA nucleic acids into mouse intestinal tissue” value is reported as “can effectively orally deliver”, the “oral delivery of single-stranded sRNA nucleic acids into mouse kidney tissue” value was “can effectively orally deliver”, the “oral delivery of single-stranded sRNA nucleic acids into mouse liver tissue” value is given as “can effectively orally deliver” and the “oral delivery of single-stranded sRNA nucleic acids into mouse stomach tissue” value was “can effectively orally deliver”.
For `C[C@]12CCC(=O)C=C1CC[C@@H]1[C@@H]2[C@@H](O)C[C@@]2(C)[C@H]1CC[C@]2(O)C(=O)CO` [Lipid 566], the “oral delivery of single-stranded sRNA nucleic acids into mouse blood” value is reported as “can effectively orally deliver”, the “oral delivery of single-stranded sRNA nucleic acids into mouse femur” value is given as “can effectively orally deliver”, the “oral delivery of single-stranded sRNA nucleic acids into mouse heart tissue” value is “can effectively orally deliver” and the “oral delivery of single-stranded sRNA nucleic acids into mouse intestinal tissue” value is “can effectively orally deliver”. For the same molecule, the “oral delivery of single-stranded sRNA nucleic acids into mouse kidney tissue” value is given as “can effectively orally deliver”, the “oral delivery of single-stranded sRNA nucleic acids into mouse liver tissue” value is on record as “can effectively orally deliver” and the “oral delivery of single-stranded sRNA nucleic acids into mouse stomach tissue” value is recorded as “can effectively orally deliver”.
Take `C[C@]12CC[C@H]3[C@@H](CCC4=CC(=O)CC[C@@]43CO)[C@@H]1CCC2=O` [Lipid 567, 19-hydroxy-androstane-4-ene-3,17-dione (8R,9S,10S,13S,14S)-10-(hydroxymethyl)-13-methyl-2,6,7,8,9,11,12,14,15,16-decahydro-1H-cyclopenta[a]phenanthrene-3,17-dione]: the “delivery efficacy over each tissue and blood tested (broad-spectrum delivery)” value is “exhibited the best delivery efficacy”; the “oral delivery of single-stranded sRNA nucleic acids into mouse blood” value is “can effectively orally deliver”; the “oral delivery of single-stranded sRNA nucleic acids into mouse brain tissue” value is “can effectively orally deliver”; the “oral delivery of single-stranded sRNA nucleic acids into mouse femur” value is listed as “can effectively orally deliver”. For the same molecule, the “oral delivery of single-stranded sRNA nucleic acids into mouse heart tissue” value was “can effectively orally deliver”, the “oral delivery of single-stranded sRNA nucleic acids into mouse intestinal tissue” value was “can effectively orally deliver”, the “oral delivery of single-stranded sRNA nucleic acids into mouse kidney tissue” value is given as “can effectively orally deliver” and the “oral delivery of single-stranded sRNA nucleic acids into mouse liver tissue” value is recorded as “can effectively orally deliver”. The “oral delivery of single-stranded sRNA nucleic acids into mouse lung tissue” value is recorded as “can effectively orally deliver”, the “oral delivery of single-stranded sRNA nucleic acids into mouse spleen tissue” value is reported as “can effectively orally deliver” and the “oral delivery of single-stranded sRNA nucleic acids into mouse stomach tissue” value is reported as “can effectively orally deliver”.
As for `CCC(=O)O[C@H]1CC[C@H]2[C@@H]3CCC4=CC(=O)CC[C@]4(C)[C@H]3CC[C@]12C` [Lipid 568], the “delivery efficacy over each tissue and blood tested (broad-spectrum delivery)” value is “exhibited the best delivery efficacy”; the “oral delivery of single-stranded sRNA nucleic acids into mouse blood” value is given as “can effectively orally deliver”; the “oral delivery of single-stranded sRNA nucleic acids into mouse brain tissue” value is on record as “can effectively orally deliver”; the “oral delivery of single-stranded sRNA nucleic acids into mouse femur” value was “can effectively orally deliver”. Besides, the “oral delivery of single-stranded sRNA nucleic acids into mouse heart tissue” value is given as “can effectively orally deliver”, the “oral delivery of single-stranded sRNA nucleic acids into mouse intestinal tissue” value is “can effectively orally deliver”, the “oral delivery of single-stranded sRNA nucleic acids into mouse kidney tissue” value is recorded as “can effectively orally deliver” and the “oral delivery of single-stranded sRNA nucleic acids into mouse liver tissue” value is recorded as “can effectively orally deliver”. Also, the “oral delivery of single-stranded sRNA nucleic acids into mouse lung tissue” value is recorded as “can effectively orally deliver”, the “oral delivery of single-stranded sRNA nucleic acids into mouse spleen tissue” value was “can effectively orally deliver” and the “oral delivery of single-stranded sRNA nucleic acids into mouse stomach tissue” value was “can effectively orally deliver”.
For `C=C1/C(=C\C=C2/CCC[C@]3(C)[C@@H]([C@H](C)/C=C/[C@H](C)C(C)C)CC[C@@H]23)C[C@@H](O)C[C@@H]1O` [Lipid 569], the “delivery efficacy over each tissue and blood tested (broad-spectrum delivery)” value was “exhibited the best delivery efficacy”; the “oral delivery of single-stranded sRNA nucleic acids into mouse blood” value is “can effectively orally deliver”; the “oral delivery of single-stranded sRNA nucleic acids into mouse brain tissue” value is “can effectively orally deliver”; the “oral delivery of single-stranded sRNA nucleic acids into mouse femur” value is on record as “can effectively orally deliver”. Moreover, the “oral delivery of single-stranded sRNA nucleic acids into mouse heart tissue” value is “can effectively orally deliver”, the “oral delivery of single-stranded sRNA nucleic acids into mouse intestinal tissue” value was “can effectively orally deliver”, the “oral delivery of single-stranded sRNA nucleic acids into mouse kidney tissue” value is on record as “can effectively orally deliver” and the “oral delivery of single-stranded sRNA nucleic acids into mouse liver tissue” value is reported as “can effectively orally deliver”. Also, the “oral delivery of single-stranded sRNA nucleic acids into mouse lung tissue” value is recorded as “can effectively orally deliver”, the “oral delivery of single-stranded sRNA nucleic acids into mouse spleen tissue” value is on record as “can effectively orally deliver” and the “oral delivery of single-stranded sRNA nucleic acids into mouse stomach tissue” value is given as “can effectively orally deliver”.
